Measured values taken from ChEMBL document CHEMBL1201862, “PubChem BioAssay data set” (2004).
Activity calls are given as the source filed them.

Experiments:
[1] = toxicity toward HepG2 liver cells – cell-based, plate reader, cherry-pick, antagonist series, cytotoxicity control, dose response (AID 743416); type: functional
[2] = blockers of bursicon-stimulated LGR2 cAMP reporter – cell-based, HEK293, CRE-luciferase reporter, cherry pick, set 2, dose response (AID 743343); type: functional;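 note: transfected cells were stimulated with diluted bursicon conditioned medium after compound addition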
[3] = blockade of melanocortin 4 receptor signaling – cell-based, plate reader, cherry pick, counter-screen for LGR2 antagonist project, dose response (AID 743444); type: functional;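 note: transfected HEK 293 cells stimulated with alpha-MSH peptide; potency of inhibitors of the alpha-MSH evoked signal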
[4] = A549 cell cytotoxicity, dose response, cytotoxicity control, plate reader, cherry-pick, antagonist series (AID 743412); type: functional, cell-based
[5] = viability loss in HEK293 cells – cell-based, plate reader, cherry-picked samples, cytotoxicity control, dose response (AID 743446); type: functional
NS3 = NS3 (Hepatitis C virus, UniProt A3EZJ3); experiment: NS3h DNA-binding inhibition IC50 – biochemical, fluorescence polarization, ChemBridge library, dose response (AID 743264)
NS3, sequence (A3EZJ3 whole entry): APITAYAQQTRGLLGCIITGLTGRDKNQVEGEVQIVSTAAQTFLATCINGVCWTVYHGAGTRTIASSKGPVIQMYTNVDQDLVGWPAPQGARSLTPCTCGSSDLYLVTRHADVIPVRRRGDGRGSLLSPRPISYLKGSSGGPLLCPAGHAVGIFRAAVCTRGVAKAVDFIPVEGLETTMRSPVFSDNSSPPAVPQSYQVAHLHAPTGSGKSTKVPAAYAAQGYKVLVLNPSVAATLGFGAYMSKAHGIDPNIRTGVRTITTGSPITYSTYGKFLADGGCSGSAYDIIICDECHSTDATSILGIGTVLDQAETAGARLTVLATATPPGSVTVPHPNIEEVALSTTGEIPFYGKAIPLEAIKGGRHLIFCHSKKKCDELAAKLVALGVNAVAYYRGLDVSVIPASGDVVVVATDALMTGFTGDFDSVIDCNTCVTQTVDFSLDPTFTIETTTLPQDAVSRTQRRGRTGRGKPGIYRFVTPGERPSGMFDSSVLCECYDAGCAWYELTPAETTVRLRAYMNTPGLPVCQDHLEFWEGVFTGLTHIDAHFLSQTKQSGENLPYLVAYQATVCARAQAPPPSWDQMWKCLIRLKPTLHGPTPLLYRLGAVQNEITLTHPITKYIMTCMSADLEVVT

[6] = target: DNA dC->dU-editing enzyme APOBEC-3G (Homo sapiens, UniProt Q9HC16); type: functional;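 note: Dose-response counterscreen measuring inhibition of APOBEC3G DNA deaminase activity, run while confirming APOBEC3A inhibitors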
DNA dC->dU-editing enzyme APOBEC-3G, sequence (Q9HC16 whole entry): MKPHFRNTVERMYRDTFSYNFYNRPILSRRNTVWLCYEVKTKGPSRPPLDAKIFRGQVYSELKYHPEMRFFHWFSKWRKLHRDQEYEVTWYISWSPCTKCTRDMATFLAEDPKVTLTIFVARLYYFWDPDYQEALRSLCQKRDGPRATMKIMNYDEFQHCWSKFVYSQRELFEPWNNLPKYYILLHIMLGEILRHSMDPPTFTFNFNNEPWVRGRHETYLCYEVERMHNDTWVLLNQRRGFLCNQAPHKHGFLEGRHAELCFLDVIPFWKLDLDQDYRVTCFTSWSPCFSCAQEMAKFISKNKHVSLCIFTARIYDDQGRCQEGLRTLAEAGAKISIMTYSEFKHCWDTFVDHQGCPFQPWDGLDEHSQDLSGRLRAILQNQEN

[7] = target: DNA dC->dU-editing enzyme APOBEC-3A (Homo sapiens, UniProt P31941); experiment: Dose Response confirmation of small molecule APOBEC3A DNA Deaminase Inhibitors via a fluorescence-based single-stranded DNA deaminase assay. [Related pubchem assays (depositor defined):AID493011, AID493024]; type: functional
DNA dC->dU-editing enzyme APOBEC-3A, sequence (P31941 whole entry): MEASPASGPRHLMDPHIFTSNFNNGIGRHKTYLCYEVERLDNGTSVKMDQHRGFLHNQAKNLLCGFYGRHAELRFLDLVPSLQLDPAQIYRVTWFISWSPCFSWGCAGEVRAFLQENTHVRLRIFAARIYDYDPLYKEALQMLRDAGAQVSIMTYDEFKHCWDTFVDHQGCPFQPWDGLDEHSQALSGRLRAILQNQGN

[8] = target: T1, Small ubiquitin-related modifier 1 (Homo sapiens, UniProt P63165); experiment: SUMO1 protein interaction blockers, potency – biochemical, fluorescence polarization, uHTS hits, dose response (AID 624382); type: functional; conditions: read-out: IC50_Mean
T1 sequence (P63165 whole entry): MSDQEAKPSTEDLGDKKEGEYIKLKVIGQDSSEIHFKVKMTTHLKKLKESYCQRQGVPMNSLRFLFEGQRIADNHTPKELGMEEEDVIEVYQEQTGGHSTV

[9] = target: T1, Small ubiquitin-related modifier 1; experiment: SUMO1 protein-protein binding blockers, potency – biochemical, FRET, dose response (AID 624383); type: functional; conditions: read-out: IC50_Mean
[10] = OVCAR-3 cell viability loss – plate reader, dry powder samples, PAX8 inhibitor project, dose response (AID 743044); type: functional, cell-based
Paired box protein Pax-8 = Paired box protein Pax-8 (Homo sapiens, UniProt Q06710); experiment: PAX8 transcriptional activity inhibition in RMG-I – RMG-I cells, luciferase, cherry-pick, dose response (AID 687027); type: functional, cell-based;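 note: luciferase reporter driven by Pax8 target thyroperoxidase promoter measured by SteadyGlo luminescence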
Paired box protein Pax-8, sequence (Q06710 whole entry): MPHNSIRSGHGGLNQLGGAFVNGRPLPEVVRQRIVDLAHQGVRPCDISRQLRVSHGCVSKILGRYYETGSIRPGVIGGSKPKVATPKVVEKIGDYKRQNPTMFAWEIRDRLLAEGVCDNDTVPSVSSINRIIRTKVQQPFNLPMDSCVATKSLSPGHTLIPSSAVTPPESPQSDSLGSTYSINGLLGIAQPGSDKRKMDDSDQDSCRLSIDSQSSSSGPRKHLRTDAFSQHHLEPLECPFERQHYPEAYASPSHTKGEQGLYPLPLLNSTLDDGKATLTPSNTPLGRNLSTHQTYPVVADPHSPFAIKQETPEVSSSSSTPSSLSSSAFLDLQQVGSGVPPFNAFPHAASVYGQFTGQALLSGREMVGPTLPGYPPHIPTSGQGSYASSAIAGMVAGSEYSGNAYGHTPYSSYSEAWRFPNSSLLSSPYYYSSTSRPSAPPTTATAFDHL

[11] = OVCAR8 cell viability loss – plate reader, dry powder samples, PAX8 project, dose response (AID 743197); type: functional, cell-based; conditions: OVCAR-8
[12] = target: Long-chain-fatty-acid--AMP ligase FadD28 (Mycobacterium tuberculosis, UniProt P9WQ59); experiment: Fluorescence polarization aasay to screen for inhibitors that compete for the binding of FadD28 to a bisubstrate Measured in Biochemical System Using Plate Reader - 2147-01_Inhibitor_Dose_CherryPick_Activity.; type: functional, Mycobacterium tuberculosis H37Rv
Long-chain-fatty-acid--AMP ligase FadD28, sequence (P9WQ59 whole entry): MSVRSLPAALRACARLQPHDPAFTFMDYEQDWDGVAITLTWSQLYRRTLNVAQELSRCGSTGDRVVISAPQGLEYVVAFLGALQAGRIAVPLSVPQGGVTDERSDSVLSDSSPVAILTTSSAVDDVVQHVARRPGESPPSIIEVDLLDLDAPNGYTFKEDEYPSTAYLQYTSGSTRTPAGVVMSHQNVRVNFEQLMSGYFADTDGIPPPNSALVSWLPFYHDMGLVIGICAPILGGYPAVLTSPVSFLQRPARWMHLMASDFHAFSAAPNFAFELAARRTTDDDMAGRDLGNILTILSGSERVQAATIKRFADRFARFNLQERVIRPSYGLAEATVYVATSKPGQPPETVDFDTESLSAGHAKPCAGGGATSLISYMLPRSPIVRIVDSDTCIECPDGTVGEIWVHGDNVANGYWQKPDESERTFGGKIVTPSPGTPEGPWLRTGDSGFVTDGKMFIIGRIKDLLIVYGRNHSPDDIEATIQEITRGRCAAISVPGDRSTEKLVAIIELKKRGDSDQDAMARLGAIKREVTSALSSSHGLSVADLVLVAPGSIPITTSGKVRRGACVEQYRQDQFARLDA

[13] = IGROV1 cell killing – plate reader, dry powder samples, PAX8 inhibitor project, dose response (AID 743043); type: functional, cell-based; conditions: IGROV-1
[14] = target: T2, Corticotropin-releasing factor receptor 2/Corticotropin-releasing factor-binding protein (Homo sapiens, UniProt P24387+Q13324); experiment: Dose Response confirmation of uHTS hits for small molecule antagonists of the CRF-binding protein and CRF-R2 receptor complex.; type: functional; conditions: read-out: IC50_Mean
T2 sequence (Q13324 whole entry): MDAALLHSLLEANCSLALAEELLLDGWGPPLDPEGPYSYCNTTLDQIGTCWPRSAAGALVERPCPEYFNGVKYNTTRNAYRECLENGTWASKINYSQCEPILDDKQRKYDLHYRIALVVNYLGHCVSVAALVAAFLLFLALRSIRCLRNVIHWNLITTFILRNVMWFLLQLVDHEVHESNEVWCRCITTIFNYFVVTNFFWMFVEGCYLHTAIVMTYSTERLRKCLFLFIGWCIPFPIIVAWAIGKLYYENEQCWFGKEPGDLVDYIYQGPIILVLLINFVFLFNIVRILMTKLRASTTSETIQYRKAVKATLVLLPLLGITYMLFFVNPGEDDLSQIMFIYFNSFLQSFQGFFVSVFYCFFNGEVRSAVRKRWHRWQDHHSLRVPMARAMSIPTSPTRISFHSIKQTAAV
T2 sequence (P24387 whole entry): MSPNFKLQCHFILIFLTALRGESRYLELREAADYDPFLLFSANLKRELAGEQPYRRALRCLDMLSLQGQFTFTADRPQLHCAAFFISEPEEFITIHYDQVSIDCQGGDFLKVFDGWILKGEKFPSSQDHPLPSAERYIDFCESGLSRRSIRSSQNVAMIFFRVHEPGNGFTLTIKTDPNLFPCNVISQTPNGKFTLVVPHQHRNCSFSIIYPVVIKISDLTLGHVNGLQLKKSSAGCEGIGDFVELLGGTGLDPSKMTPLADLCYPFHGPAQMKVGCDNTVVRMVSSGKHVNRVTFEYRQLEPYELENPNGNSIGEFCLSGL

[15] = blockers of CRF-binding protein–CRF-R2 complex – cell-based, uHTS hits, 384-well, dose response (AID 651639); type: functional, Homo sapiens; conditions: read-out: IC50_Mean
[16] = target: T2, Corticotropin-releasing factor receptor 2/Corticotropin-releasing factor-binding protein; experiment: activators of CRF receptor 2 with binding protein – uHTS hits, confirmation (AID 602473); type: functional; conditions: read-out: EC50_Mean

Structure (SMILES): C[C@H]1CN([C@@H](C)CO)C(=O)c2cc(NC(=O)Nc3ccc(C(F)(F)F)cc3)ccc2O[C@H]1CN(C)S(=O)(=O)c1cccs1
- AC50 [1]: > 52 µM (inactive)
- AC50 [2]: 32.4 µM (active)
- AC50 [3]: 23.1 µM (active)
- AC50 [4]: 18 µM (active)
- AC50 [5]: 29.1 µM (active)

Structure (SMILES): O=C(Nc1ccc(Cl)cc1)c1ccc2c(c1)OCCO2
- IC50 (NS3): 76.9 µM (active)

Structure (SMILES): O=C(COC(=O)c1ccc(F)c(S(=O)(=O)N2CCOCC2)c1)Nc1ccc2[nH]c(=O)[nH]c2c1
- IC50 [6]: 25.9 µM (active)
- IC50 [7]: 16.1 µM (active)
- IC50 [8]: > 66.6 µM (inactive)
- IC50 [9]: 20.5 µM (inactive)

Structure (SMILES): C[C@@H]1CCCCO[C@H](CN(C)S(=O)(=O)c2ccccc2)[C@H](C)CN([C@@H](C)CO)C(=O)c2cc(NS(=O)(=O)c3ccc(Cl)cc3)ccc2O1
- AC50 [10]: 46.7 µM (active)
- AC50 (Paired box protein Pax-8): 6.18 µM (active)
- AC50 [11]: > 70 µM (inactive)

Structure (SMILES): CCOC(=O)c1ccc(NC(=O)Nc2ccc3c(c2)OCCO3)cc1
- AC50 [12]: 59.3 µM (active)

Structure (SMILES): O=C(C[C@@H]1CC[C@@H]2[C@H](COC[C@H](O)CN2Cc2ccc3c(c2)OCO3)O1)Nc1ccc(-c2ccccc2)cc1
- AC50 (Paired box protein Pax-8): 9.11 µM (active)
- AC50 [13]: 41.8 µM (active)

Structure (SMILES): Cc1cc(C(=O)CN2C(=O)NC(C)(CC(C)C)C2=O)c(C)n1-c1ccc2c(c1)OCO2 (stereo not given)
- IC50 [14]: 12.8 µM (active)
- IC50 [15]: 2.36 µM (active)
- EC50 [16]: > 53 µM (inactive)

Structure (SMILES): CC(=O)N(C)C1=C(Cl)C(=O)c2ccccc2C1=O
- IC50 (NS3): 20.4 µM (inactive)

Structure (SMILES): CCOCCCn1c(SCc2nc3ccccc3s2)nc2ccccc2c1=O
- AC50 [1]: > 52 µM (inactive)
- AC50 [2]: 34.6 µM (active)
- AC50 [4]: 29.8 µM (active)
- AC50 [5]: 5.44 µM (active)
- EC50 [16]: > 53 µM (inactive)
